Data reported in patent publication US20200281944A1, “Combinations Of Lanosterol Or 25-Hydroxycholesterol Including Derivatives Thereof Useful In The Treatment Of Lens Disorders” (priority 2017, published 2020).
Where a name gives a salt, the structure may show the parent alone. Values belong to the compound of their own block, whether it stands above or below them.

Experiments:
presbyopia = details: cited from earlier work
lens opacification = details: cell cultures, in the presence of guanidine; cited from earlier work

melting point: 204 to 205 °C
Compound: CC(C)=CCC[C@@H](C)[C@H]1CC[C@@]2(C)C3=C(CC[C@]12C)[C@@]1(C)CC[C@H](OP(=O)(O)O)C(C)(C)[C@@H]1CC3 (as salt: phosphate)

Compound: C[N+](C)(C)CCOC(=O)CCCC[C@@H]1CCSS1 [EV06, Lipoic acid choline ester]
binocular near acuity (presbyopia; Lipoic acid choline ester 1.5%): improved
distance corrected near vision acuity (DCNVA) efficacy measures (presbyopia; in vivo): improvement in all

Compound: NCCC(=O)N[C@@H](Cc1c[nH]cn1)C(=O)O [L-carnosine, β-alanyl-L-histidine]
prevention of lens opacification (lens opacification): 50 to 60%
